Experimental data: US20260250318A1, “COMPOSITIONS AND METHODS FOR CROSSING THE BLOOD BRAIN BARRIER” (VOYAGER THERAPEUTICS, INC., priority 2022, published 2026)

Columns and labels:
Settings in all cases: synthetic library passage 3, intravenous, relative to wild-type AAV9
brain [1] = assay: NGS fold enrichment of synthetic library (passage 3) in BALB/c mice, first cross-species screen; assay type: in vivo
Procedure, shortened: (§1)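 Synthetic capsid library (passage 3) was given intravenously […] to NHPs aged 2-4 years and to BALB/c and C57Bl/6 mice (n=3 each, 6-8 weeks). After about 28 days in vivo, tissue RNA was RT-PCR amplified and NGS-sequenced; values are fold enrichment per variant relative to wild-type AAV9.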

[2] = system: brain, spinal cord, and DRG of the NHPs; assay: NGS fold enrichment of synthetic library (passage 3) in NHPs, first cross-species screen; assay type: in vivo, cynomolgus macaques (Macaca fascicularis)
Procedure, shortened: as §1

brain [3] = assay: NGS fold enrichment of synthetic library (passage 3) in C57Bl/6 mice, first cross-species screen; assay type: in vivo
Procedure, shortened: as §1

[4] = RNA from brain of BALB/c mice, NGS
[5] = RNA from spinal cord of NHPs, NGS
[6] = RNA from brain of C57Bl/6 mice, NGS

Row | Sequence | Fold enrichment over AAV9 in the brain of Mice (BALB/c) (brain [1]; [4]) | Fold enrichment over AAV9 in the brain of NHPs ([2]; RNA from brain of NHPs, NGS) | Fold enrichment over AAV9 in the spinal cord of NHPs [2, 5] | Fold enrichment over AAV9 in the brain of Mice (C57Bl/6) (brain [3]; [6]) | Fold enrichment over AAV9 in the brain of Mice (BALB/c) (brain [1]; RNA NGS, brain of BALB/c mice) | Fold enrichment over AAV9 in the brain of NHPs ([2]; RNA NGS, brain of NHPs) | Fold enrichment over AAV9 in the spinal cord of NHPs ([2]; RNA NGS, spinal cord of NHPs) | Fold enrichment over AAV9 in the brain of Mice (C57Bl/6) (brain [3]; RNA NGS, brain of C57Bl/6 mice)
1 | GSGQVAYAQGNQQT | 0.313 fold | 1.259 fold | 1.309 fold | 0.734 fold | – | – | – | –
2 | GSGQNRAQSRFQQT | – | – | – | – | 1.788 fold | 3.043 fold | 0.000 fold | 0.619 fold
3 | GSGHTNPTRQNQQT | – | – | – | – | 0.807 fold | 1.021 fold | 0.688 fold | 0.726 fold
4 | GSGQNQQYAGKILT | – | – | – | – | 0.431 fold | 1.112 fold | 0.300 fold | 1.078 fold
5 | GSGQSREISLNQQT | – | – | – | – | 0.282 fold | 1.088 fold | 6.954 fold | 0.594 fold
6 | GSGTHYDNRQNQQT | – | – | – | – | 0.486 fold | 1.054 fold | 0.072 fold | 0.612 fold
7 | GSGTHLVSLQNQQT | 1.167 fold | 1.392 fold | 0.000 fold | 0.715 fold | – | – | – | –
8 | GMYEYSQSGQNQQT | – | – | – | – | 0.448 fold | 1.438 fold | 0.000 fold | 1.410 fold
9 | GQLVTFTSGQNQQT | 0.294 fold | 1.331 fold | 11.282 fold | 0.819 fold | – | – | – | –
10 | GSGQNQQHASSNNT | 0.896 fold | 1.166 fold | 7.155 fold | 0.789 fold | – | – | – | –
11 | GSGQNQQLAITLGT | – | – | – | – | 0.143 fold | 1.011 fold | 0.000 fold | 0.877 fold
12 | GSPYMGATGQNQQT | – | – | – | – | 0.254 fold | 1.083 fold | 5.364 fold | 0.918 fold
13 | GSGYLRESPQNQQT | – | – | – | – | 0.677 fold | 2.311 fold | 0.878 fold | 0.331 fold
14 | GSGQMGRQAVNQQT | – | – | – | – | 0.411 fold | 1.554 fold | 1.529 fold | 0.535 fold
15 | GSGQRMADIGNQQT | 0.427 fold | 1.233 fold | 2.539 fold | 0.352 fold | – | – | – | –
16 | GSGQNQQTGQHMRV | 1.635 fold | 1.286 fold | 4.161 fold | 1.839 fold | – | – | – | –
17 | GSGTQIPSQQNQQT | – | – | – | – | 0.151 fold | 3.112 fold | 1.224 fold | 0.470 fold
18 | GIFMQTPSGQNQQT | – | – | – | – | 0.252 fold | 2.344 fold | 6.198 fold | 0.938 fold
19 | GSGGLDTRGQNQQT | – | – | – | – | 0.197 fold | 2.139 fold | 6.216 fold | 0.236 fold
20 | GSGMIIASMQNQQT | – | – | – | – | 0.415 fold | 1.469 fold | 6.722 fold | 1.135 fold
21 | GSRLVHVHGQNQQT | – | – | – | – | 0.934 fold | 2.334 fold | 1.174 fold | 1.277 fold
22 | GSITLIPSGQNQQT | – | – | – | – | 0.435 fold | 3.361 fold | 3.917 fold | 0.326 fold
23 | GSTVQDTRGQNQQT | – | – | – | – | 0.473 fold | 2.270 fold | 4.979 fold | 0.576 fold
24 | GSGQLSGTPQNQQT | 0.643 fold | 1.185 fold | 1.382 fold | 1.025 fold | – | – | – | –
25 | GGQVAPSSGQNQQT | – | – | – | – | 0.709 fold | 2.581 fold | 2.427 fold | 1.433 fold
26 | GPFGMPSSGQNQQT | – | – | – | – | 0.560 fold | 2.260 fold | 2.700 fold | 0.727 fold
